Among the test systems are XF 498 CNS; P388 leukemia; M19-MEL melanoma; SN12K1 renal; HOP-18 NSCLC; KM20L2 colon; 786-0 renal.
What all share (test): NCI tumour cell line growth inhibition, 48 h

Our source for the TGI values is PubChem BioAssay (NCI).

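Values below derive from 48-hour exposures of cells grown in 96-well plates, with endpoints linearly interpolated between the two concentrations bracketing the appropriate inhibition level. Definition used: TGI = concentration required for complete inhibition of growth.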

`COc1cc2c(cc1O)N=C[C@@H]1CCC(O)N1C2=O` (mixture of isomers): the TGI worked out at 1.2 µM in the assay with XF 498 CNS; 9.2 µM in the assay on P388 leukemia; 4.81 µM in the assay with M19-MEL melanoma; 25 µM with SN12K1 renal; 3.39 µM in the assay with HOP-18 NSCLC; 24.9 µM in the assay on KM20L2 colon.

With `O=C1NC(=O)C2(CCc3ccc(N(CCCl)CCCl)cc32)N1` (centres undefined), the TGI with P388 leukemia was 15.5 µM; in the assay with M19-MEL melanoma, 39.5 µM; with SN12K1 renal, 37.1 µM; in the assay with HOP-18 NSCLC, 64.4 µM; with KM20L2 colon, 42.8 µM.

Consider `C/C=C1/C(=O)O[C@]23C=C[C@@H]4C(C(=O)OC)=CO[C@H](O[C@@H]12)[C@@H]43`, for which the TGI was 3.37 µM in the assay on XF 498 CNS; 1.83 µM with P388 leukemia; 4.38 µM in the assay with M19-MEL melanoma; 3.22 µM with SN12K1 renal; 10.4 µM with HOP-18 NSCLC; 15.4 µM in the assay on KM20L2 colon.

In the assay on 786-0 renal, `Nc1ccc2c(c1)S(=O)(=O)c1cc(N)ccc1-2` gave a TGI of more than 100 µM.

For the compound `O=c1ccc2nc3ccc(O)cc3oc-2c1`, in the assay with 786-0 renal, the TGI was more than 79.6 µM.
